Measurements from US4360458A, “Antitumor antibacterial agents” (priority 1980, dated 1982).
In brackets after ≈: the same amount, converted by molar mass.

How the values were obtained:
P. morganii A9553 = assay: MIC, serial agar dilution method; assay type: cell-based; conditions: nutrient agar pH 7, overnight 37° C.
Description: (§1) Antimicrobial activity of BBM-928 components was determined against a variety of bacteria and fungi by serial agar dilution method in nutrient agar at pH 7 using Steer's multi-inoculating apparatus. The inoculum size was standardized to apply a 0.0025-ml aliquot of test organisms containing approximately 10^4 cell/ml for all bacteria and fungi except acid-fast bacteria for which a 10^6 cell/ml suspension was used.

S. pyogenes S-23 = assay: MIC, serial agar dilution method; assay type: cell-based; conditions: nutrient agar pH 7, overnight 37° C.
Description: as §1

C. arbicans IAM 4888 = assay: MIC, serial agar dilution method; assay type: cell-based; conditions: nutrient agar pH 7, overnight 37° C.
Description: as §1

M. phlei D88 = assay: MIC, serial agar dilution method; assay type: cell-based; conditions: nutrient agar pH 7, overnight 37° C., 10^6 cell/ml inoculum
Description: as §1

S. aureus 209P = assay: MIC, serial agar dilution method; assay type: cell-based; conditions: nutrient agar pH 7, overnight 37° C.
Description: as §1

P. mirabilis A9554 = assay: MIC, serial agar dilution method; assay type: cell-based; conditions: nutrient agar pH 7, overnight 37° C.
Description: as §1

A. faecalis ATCC 8750 = assay: MIC, serial agar dilution method; assay type: cell-based; conditions: nutrient agar pH 7, overnight 37° C.
Description: as §1

K. pneumoniae D-11 = assay: MIC, serial agar dilution method; assay type: cell-based; conditions: nutrient agar pH 7, overnight 37° C.
Description: as §1

M. flavus D12 = assay: MIC, serial agar dilution method; assay type: cell-based; conditions: nutrient agar pH 7, overnight 37° C.
Description: as §1

M. smegmatis 607 D87 = assay: MIC, serial agar dilution method; assay type: cell-based; conditions: nutrient agar pH 7, overnight 37° C., 10^6 cell/ml inoculum
Description: as §1

S. lutea PCI 1001 = assay: MIC, serial agar dilution method; assay type: cell-based; conditions: nutrient agar pH 7, overnight 37° C.
Description: as §1

P. aeruginosa A9930 = assay: MIC, serial agar dilution method; assay type: cell-based; conditions: nutrient agar pH 7, overnight 37° C.
Description: as §1

P. vulgaris A9436 = assay: MIC, serial agar dilution method; assay type: cell-based; conditions: nutrient agar pH 7, overnight 37° C.
Description: as §1

C. xerosis 53K-1 = assay: MIC, serial agar dilution method; assay type: cell-based; conditions: nutrient agar pH 7, overnight 37° C.
Description: as §1

E. coli NIHJ = assay: MIC, serial agar dilution method; assay type: cell-based; conditions: nutrient agar pH 7, overnight 37° C.
Description: as §1

B. megaterium D2 = assay: MIC, serial agar dilution method; assay type: cell-based; conditions: nutrient agar pH 7, overnight 37° C.
Description: as §1

B. subtilis PCI 219 = assay: MIC, serial agar dilution method; assay type: cell-based; conditions: nutrient agar pH 7, overnight 37° C.
Description: as §1

C. neoformans = assay: MIC, serial agar dilution method; assay type: cell-based; conditions: nutrient agar pH 7, overnight 37° C.
Description: as §1

S. marcescens A20019 = assay: MIC, serial agar dilution method; assay type: cell-based; conditions: nutrient agar pH 7, overnight 37° C.
Description: as §1

B. anthracis A9504 = assay type: cell-based; conditions: nutrient agar pH 7, overnight 37° C.
[1] = tested on: sarcoma 180 ascites (S180); assay: Antitumor activity, intraperitoneally implanted tumor; assay type: in vivo, mouse
Description: (§2) Comparative testing of BBM-928 components A, B, C and D with mitomycin C for antitumor activity was carried out with the intraperitoneally implanted tumors: P388 leukemia, L1210 leukemia, B16 melamoma, Lewis Lung (LL) carcinoma, and sarcoma 180 ascites (S180). […] By varying dosage, the minimum effective dose (MED) was determined which provided a median survival time value for the treated animals at least 1.25 times greater than a control group. This level of activity is considered to be a measure of significant antitumor activity. […] Expt. Path.

B16 melamoma = assay: as above; assay type: in vivo, mouse
Description: as §2

P388 leukemia = assay: as above; assay type: in vivo, mouse
Description: as §2

L1210 leukemia = assay: as above; assay type: in vivo, mouse
Description: as §2

[2] = tested on: Lewis Lung (LL) carcinoma; assay: as above; assay type: in vivo, mouse
Description: as §2

[3] = Intraperitoneal LD50, method of Van der Waerden
lysogenic bacterium = assay: Prophage induction in lysogenic bacterium (ILB); assay type: cell-based; conditions: up to a concentration of 100 mcg./ml
Description: The activity of prophage induction in lysogenic bacterium (ILB) was determined for BBM-928 components.

[4] = daily treatments from day 1 to day 9
[5] = single treatment on day 1, median survival time at least 1.25 times control

## COc1ccc2nc(C(=O)N[C@@H]3COC(=O)[C@H](C(C)(C)O)N(C)C(=O)CN(C)C(=O)CNC(=O)[C@@H]4[C@@H](OC(C)=O)CC=NN4C(=O)[C@H](NC(=O)c4nc5ccc(OC)cc5cc4O)COC(=O)[C@H](C(C)(C)O)N(C)C(=O)CN(C)C(=O)CNC(=O)[C@@H]4[C@@H](OC(C)=O)CC=NN4C3=O)c(O)cc2c1 [BBM-928A]
P. morganii A9553
  MIC: > 100 µg/mL
S. pyogenes S-23
  MIC: 6.3 µg/mL (≈ 4.41 µM)
C. arbicans IAM 4888
  MIC: > 100 µg/mL
M. phlei D88
  MIC: 12.5 µg/mL (≈ 8.76 µM)
S. aureus 209P
  MIC: 12.5 µg/mL (≈ 8.76 µM)
P. mirabilis A9554
  MIC: > 100 µg/mL
A. faecalis ATCC 8750
  MIC: > 100 µg/mL
K. pneumoniae D-11
  MIC: > 100 µg/mL
M. flavus D12
  MIC: 12.5 µg/mL (≈ 8.76 µM)
M. smegmatis 607 D87
  MIC: 25 µg/mL (≈ 17.5 µM)
S. lutea PCI 1001
  MIC: 6.3 µg/mL (≈ 4.41 µM)
P. aeruginosa A9930
  MIC: > 100 µg/mL
P. vulgaris A9436
  MIC: > 100 µg/mL
C. xerosis 53K-1
  MIC: 25 µg/mL (≈ 17.5 µM)
E. coli NIHJ
  MIC: > 100 µg/mL
B. megaterium D2
  MIC: 25 µg/mL (≈ 17.5 µM)
B. subtilis PCI 219
  MIC: 25 µg/mL (≈ 17.5 µM)
C. neoformans
  MIC: 100 µg/mL (≈ 70.1 µM)
S. marcescens A20019
  MIC: > 100 µg/mL
B. anthracis A9504
  MIC: 6.3 µg/mL (≈ 4.41 µM)
[1]; [4]
  Activity Ratio (BBM-928A vs. Mitomycin C): 100
  Minimum Effective Dose (MED): 0.0001 mg/kg/day
[1]; single treatment on day 1
  Activity Ratio (BBM-928A vs. Mitomycin C): 100
[1]; [5]
  Minimum Effective Dose (MED): 0.003 mg/kg/day
B16 melamoma; [4]
  Activity Ratio (BBM-928A vs. Mitomycin C): 100
  Minimum Effective Dose (MED): 0.003 mg/kg/day
B16 melamoma; single treatment on day 1
  Activity Ratio (BBM-928A vs. Mitomycin C): 300
B16 melamoma; [5]
  Minimum Effective Dose (MED): 0.003 mg/kg/day
P388 leukemia; [4]
  Activity Ratio (BBM-928A vs. Mitomycin C): 100
  Minimum Effective Dose (MED): 0.001 mg/kg/day
P388 leukemia; single treatment on day 1
  Activity Ratio (BBM-928A vs. Mitomycin C): 30
P388 leukemia; [5]
  Minimum Effective Dose (MED): 0.003 mg/kg/day
L1210 leukemia; [4]
  Activity Ratio (BBM-928A vs. Mitomycin C): 100
  Minimum Effective Dose (MED): 0.003 mg/kg/day
L1210 leukemia; [5]
  Minimum Effective Dose (MED): > 0.1 mg/kg/day
[2]; [4]
  Activity Ratio (BBM-928A vs. Mitomycin C): 100
  Minimum Effective Dose (MED): 0.003 mg/kg/day
[2]; single treatment on day 1
  Activity Ratio (BBM-928A vs. Mitomycin C): 10
[2]; [5]
  Minimum Effective Dose (MED): 0.03 mg/kg/day
[3]; [4]
  LD50, i.p.: 0.013 mg/kg/day
[3]; single treatment on day 1
  LD50, i.p.: 0.13 mg/kg/day
Lysogenic bacterium
  ILB activity (prophage induction in lysogenic bacterium): No significant ILB activity

## COc1ccc2nc(C(=O)N[C@@H]3COC(=O)[C@H](C(C)(C)O)N(C)C(=O)CN(C)C(=O)CNC(=O)[C@@H]4[C@@H](O)CC=NN4C(=O)[C@H](NC(=O)c4nc5ccc(OC)cc5cc4O)COC(=O)[C@H](C(C)(C)O)N(C)C(=O)CN(C)C(=O)CNC(=O)[C@@H]4[C@@H](OC(C)=O)CC=NN4C3=O)c(O)cc2c1 [BBM-928B]
P. morganii A9553
  MIC: > 100 µg/mL
S. pyogenes S-23
  MIC: 12.5 µg/mL (≈ 9.02 µM)
C. arbicans IAM 4888
  MIC: > 100 µg/mL
M. phlei D88
  MIC: 12.5 µg/mL (≈ 9.02 µM)
S. aureus 209P
  MIC: 25 µg/mL (≈ 18 µM)
P. mirabilis A9554
  MIC: > 100 µg/mL
A. faecalis ATCC 8750
  MIC: > 100 µg/mL
K. pneumoniae D-11
  MIC: > 100 µg/mL
M. flavus D12
  MIC: 25 µg/mL (≈ 18 µM)
M. smegmatis 607 D87
  MIC: 25 µg/mL (≈ 18 µM)
S. lutea PCI 1001
  MIC: 12.5 µg/mL (≈ 9.02 µM)
P. aeruginosa A9930
  MIC: > 100 µg/mL
P. vulgaris A9436
  MIC: > 100 µg/mL
C. xerosis 53K-1
  MIC: 50 µg/mL (≈ 36.1 µM)
E. coli NIHJ
  MIC: > 100 µg/mL
B. megaterium D2
  MIC: 25 µg/mL (≈ 18 µM)
B. subtilis PCI 219
  MIC: 25 µg/mL (≈ 18 µM)
C. neoformans
  MIC: > 100 µg/mL
S. marcescens A20019
  MIC: > 100 µg/mL
B. anthracis A9504
  MIC: 12.5 µg/mL (≈ 9.02 µM)
P388 leukemia; [5]
  Minimum Effective Dose (MED): 0.1 mg/kg/day
[3]; single treatment on day 1
  LD50, i.p.: 0.18 mg/kg/day
Lysogenic bacterium
  ILB activity (prophage induction in lysogenic bacterium): No significant ILB activity

## COc1ccc2nc(C(=O)N[C@@H]3COC(=O)[C@H](C(C)(C)O)N(C)C(=O)CN(C)C(=O)CNC(=O)[C@@H]4[C@@H](O)CC=NN4C(=O)[C@H](NC(=O)c4nc5ccc(OC)cc5cc4O)COC(=O)[C@H](C(C)(C)O)N(C)C(=O)CN(C)C(=O)CNC(=O)[C@@H]4[C@@H](O)CC=NN4C3=O)c(O)cc2c1 [BBM-928C]
P. morganii A9553
  MIC: > 100 µg/mL
S. pyogenes S-23
  MIC: 25 µg/mL (≈ 18.6 µM)
C. arbicans IAM 4888
  MIC: > 100 µg/mL
M. phlei D88
  MIC: 12.5 µg/mL (≈ 9.31 µM)
S. aureus 209P
  MIC: 50 µg/mL (≈ 37.2 µM)
P. mirabilis A9554
  MIC: > 100 µg/mL
A. faecalis ATCC 8750
  MIC: > 100 µg/mL
K. pneumoniae D-11
  MIC: > 100 µg/mL
M. flavus D12
  MIC: 50 µg/mL (≈ 37.2 µM)
M. smegmatis 607 D87
  MIC: 25 µg/mL (≈ 18.6 µM)
S. lutea PCI 1001
  MIC: 50 µg/mL (≈ 37.2 µM)
P. aeruginosa A9930
  MIC: > 100 µg/mL
P. vulgaris A9436
  MIC: > 100 µg/mL
C. xerosis 53K-1
  MIC: > 100 µg/mL
E. coli NIHJ
  MIC: > 100 µg/mL
B. megaterium D2
  MIC: 50 µg/mL (≈ 37.2 µM)
B. subtilis PCI 219
  MIC: 100 µg/mL (≈ 74.4 µM)
C. neoformans
  MIC: 100 µg/mL (≈ 74.4 µM)
S. marcescens A20019
  MIC: > 100 µg/mL
B. anthracis A9504
  MIC: 25 µg/mL (≈ 18.6 µM)
[3]; single treatment on day 1
  LD50, i.p.: 0.81 mg/kg/day
Lysogenic bacterium
  ILB activity (prophage induction in lysogenic bacterium): No significant ILB activity

## CO[C@@]12[C@H](COC(N)=O)C3=C(C(=O)C(C)=C(N)C3=O)N1C[C@@H]1N[C@@H]12 [Mitomycin C, reference compound]
[1]; [4]
  Minimum Effective Dose (MED): 0.03 mg/kg/day
[1]; [5]
  Minimum Effective Dose (MED): 0.3 mg/kg/day
B16 melamoma; [4]
  Minimum Effective Dose (MED): 0.3 mg/kg/day
B16 melamoma; [5]
  Minimum Effective Dose (MED): 1 mg/kg/day
P388 leukemia; [4]
  Minimum Effective Dose (MED): 0.1 mg/kg/day
P388 leukemia; [5]
  Minimum Effective Dose (MED): 0.1 mg/kg/day
L1210 leukemia; [4]
  Minimum Effective Dose (MED): 0.3 mg/kg/day
L1210 leukemia; [5]
  Minimum Effective Dose (MED): 3 mg/kg/day
[2]; [4]
  Minimum Effective Dose (MED): 0.3 mg/kg/day
[2]; [5]
  Minimum Effective Dose (MED): 0.3 mg/kg/day
